The target of this test is T1, Calpain-1 catalytic subunit (Sus scrofa, UniProt P35750).
T1 sequence (P35750 whole entry): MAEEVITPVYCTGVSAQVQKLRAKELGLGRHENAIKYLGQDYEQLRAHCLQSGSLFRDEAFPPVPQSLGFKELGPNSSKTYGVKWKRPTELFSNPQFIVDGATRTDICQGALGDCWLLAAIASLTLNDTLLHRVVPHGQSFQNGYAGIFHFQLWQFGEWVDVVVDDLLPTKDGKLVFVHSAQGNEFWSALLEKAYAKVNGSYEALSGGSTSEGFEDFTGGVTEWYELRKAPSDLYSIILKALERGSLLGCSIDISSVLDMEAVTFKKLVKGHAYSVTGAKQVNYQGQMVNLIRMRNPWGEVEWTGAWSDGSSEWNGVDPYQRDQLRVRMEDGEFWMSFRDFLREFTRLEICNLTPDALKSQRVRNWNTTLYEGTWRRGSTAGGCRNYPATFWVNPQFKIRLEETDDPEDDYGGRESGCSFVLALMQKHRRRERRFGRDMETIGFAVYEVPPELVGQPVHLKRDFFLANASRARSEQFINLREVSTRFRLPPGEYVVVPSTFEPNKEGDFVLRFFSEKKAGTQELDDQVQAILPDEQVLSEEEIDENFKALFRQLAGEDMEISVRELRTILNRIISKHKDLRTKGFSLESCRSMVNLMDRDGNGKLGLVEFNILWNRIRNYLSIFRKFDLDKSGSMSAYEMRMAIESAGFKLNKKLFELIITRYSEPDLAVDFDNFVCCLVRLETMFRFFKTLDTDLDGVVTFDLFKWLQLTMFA
Kind of test: Binding affinity was evaluated against porcine erythrocyte Calpain 1 at the S1 subsite of the enzyme.

With `CC(C)C[C@H](NC(=O)OCc1ccccc1)C(=O)N[C@@H](Cc1ccccc1)C(=O)C(=O)NCCc1ccccc1`, the affinity corresponds to a Ki of 72 nM.

For `CCNC(=O)C(=O)[C@H](Cc1ccccc1)NC(=O)[C@H](CC(C)C)NC(=O)OCc1ccccc1`, the affinity, expressed as Ki, was 200 nM. For the molecule `CCONC(=O)C(=O)[C@H](Cc1ccccc1)NC(=O)[C@H](CC(C)C)NC(=O)OCc1ccccc1`, the affinity, expressed as Ki, was 62 nM. As to `CCN(CC)C(=O)C(=O)[C@H](Cc1ccccc1)NC(=O)[C@H](CC(C)C)NC(=O)OCc1ccccc1`, affinity was put at a Ki of 76000 nM.

As to `CCON(C)C(=O)C(=O)[C@H](Cc1ccccc1)NC(=O)[C@H](CC(C)C)NC(=O)OCc1ccccc1`, affinity was put at a Ki of 750 nM.

As to `CCN(OCc1ccccc1)C(=O)C(=O)[C@H](Cc1ccccc1)NC(=O)[C@H](CC(C)C)NC(=O)OCc1ccccc1`, the Ki (as a rule, the equilibrium dissociation constant of an inhibitor or competing ligand from its target) came to 28000 nM. For `CC(C)C[C@H](NC(=O)OCc1ccccc1)C(=O)N[C@@H](Cc1ccccc1)C(=O)C(=O)NOCc1ccccc1` the value was 45 nM; for `CCCNC(=O)C(=O)[C@H](Cc1ccccc1)NC(=O)[C@H](CC(C)C)NC(=O)OCc1ccccc1`, 107 nM; for `CC(C)C[C@H](NC(=O)OCc1ccccc1)C(=O)N[C@@H](Cc1ccccc1)C(=O)C(=O)N(C)OCc1ccccc1`, 673 nM.
